Data published in patent US7868005B2, “Pyrazinyl substituted piperazine-piperidines with CXCR3 antagonist activity” (Schering Corporation, priority 2005, dated 2011).

Each molecule was assayed against T1, human CXCR3 (N-delta 4) (Homo sapiens, UniProt P49682) (assay: Human CXCR3 (N-delta 4) Scintillation Proximity Assay (SPA), [125I] IP-10 binding to Ba/F3-hCXCR3 membranes). Conditions: IC50 rating, Table 1; read-out: IC50.
T1 construct: CD8 leader (N); Flag; expressed in transfected cells; membranes prepared
T1 sequence (P49682 5-368 limits assumed): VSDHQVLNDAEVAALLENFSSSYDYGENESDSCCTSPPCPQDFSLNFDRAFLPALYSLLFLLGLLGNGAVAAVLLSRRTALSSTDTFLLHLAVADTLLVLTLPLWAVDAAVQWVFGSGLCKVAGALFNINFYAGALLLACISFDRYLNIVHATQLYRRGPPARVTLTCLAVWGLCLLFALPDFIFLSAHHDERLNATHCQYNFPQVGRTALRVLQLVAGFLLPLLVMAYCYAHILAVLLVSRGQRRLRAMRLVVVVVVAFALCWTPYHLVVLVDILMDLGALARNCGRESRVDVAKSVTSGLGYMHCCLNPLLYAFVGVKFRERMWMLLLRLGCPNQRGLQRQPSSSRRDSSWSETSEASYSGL
Description: The inventive compounds can readily be evaluated to determine activity at the CXCR3 receptors by known methods, such as, for example, development of a human CXCR3 (N-delta 4) Binding Assay.
Cloning and Expression of Human CXCR3 (N-delta 4):
The DNA encoding human CXCR3 was cloned by PCR using human genomic DNA (Promega, Madison, Wis.) as a template. The PCR primers were designed based on the published sequence of human orphan receptor GPR9 (1) with incorporated restriction sites, a Kozak consensus sequence, CD8 leader and Flag tag. The PCR product was subcloned into the mammalian expression vector pME18Sneo, a derivative of the SR-alpha expression vector (designated as pME18Sneo-hCXCR3 (N-delta 4).
IL-3-dependent mouse pro-B cells Ba/F3 were transfected by electroporation in 0.4 ml Dulbecco's PBS containing 4×10^6 cells with 20 μg of pME18Sneo-hCXCR3 (N-delta 4) plasmid DNA. Cells were pulsed at 400 Volts, 100 OHMs, 960 μFd. The transfected cells were under selection with 1 mg/ml G418 (Life Technologies, Gaithersburg, Md.). G418-resistant Ba/F3 clones were screened for CXCR3 expression by specific binding of [^125I] IP-10 (NEN Life Science Products, Boston, Mass.).
Preparation of Ba/F3-hCXCR3 (N-delta 4) Membranes:
Ba/F3 cells expressing human CXCR3 (N-delta 4) were pelleted and resuspended in the lysis buffer containing 10 mM HEPES, pH 7.5 and Complete® protease inhibitors (1 tablet per 100 ml) (Boehringer Mannheim, Indianapolis, Ind.) at a cell density of 20×10^6 cells per ml. After 5 minute incubation on ice, cells were transferred to 4639 cell disruption bomb (Parr Instrument, Moline, Ill.) and applied with 1,500 psi of nitrogen for 30 minutes on ice. Large cellular debris was removed by centrifugation at 1,000×g. Cell membrane in the supernatant was sedimented at 100,000×g. The membrane was resuspended in the lysis buffer supplemented with 10% sucrose and stored at −80° C. Total protein concentration of the membrane was determined by BCA method from Pierce (Rockford, Ill.).
Human CXCR3 (N-delta 4) Scintillation Proximity Assay (SPA):
For each assay point, 2 μg of membrane was preincubated for 1 hr with 300 μg wheat germ agglutinin (WGA) coated SPA beads (Amersham, Arlington Heights, Ill.) in the binding buffer (50 mM HEPES, 1 mM CaCl2, 5 mM MgCl2, 125 mM NaCl, 0.002% NaN3, 1.0% BSA) at room temperature. The beads were spun down, washed once, resuspended in the binding buffer and transferred to a 96-well Isoplate (Wallac, Gaithersburg, Md.). 25 pM of [^125I] IP-10 with tested compounds in a series of titration were added to start the reaction. After 3 hr reaction at room temperature, the amount of [^125I] IP-10 bound to the SPA beads was determined with a Wallac 1450 Microbeta counter.
The Ki ratings for the various compounds of the present invention are given in the afore-mentioned Table 1. From these ratings and value ranges, it would be apparent to the skilled artisan that the compounds of the invention have excellent utility as CXCR3 receptor antagonists.
`CC[C@H]1CN(c2nc(N)c(C(=O)NC)nc2Cl)CCN1C1CCN([C@@H](C(N)=O)c2ccc(Cl)cc2)CC1` [compound 76] showed an IC50 of over 100 nM. For `CC[C@H]1CN(c2nc(N)c(C(=O)NCCO)nc2Cl)CCN1C1CCN(Cc2ccc(C#N)cc2OCCOC)CC1` [compound 163], the IC50 was under 25 nM. In the case of `CC[C@H]1CN(c2nc(N)c(C(N)=O)nc2Cl)CCN1C1CCN(Cc2ccc(Cl)cc2C(O)C(=O)N(C)C)CC1` (some centres unmarked) [compound 378], the IC50 is reported as under 25 nM. `CC[C@H]1CN(c2nc(N)c(C(=O)NCCO)nc2Cl)CCN1C1CCN(Cc2ccc(Cl)cc2OCCNC(=O)NC(C)(C)C)CC1` [compound 137] was tested, and the IC50 was under 25 nM. For `CC[C@H]1CN(c2nc(N)c(C(=O)NCCO)nc2Cl)CCN1C1CCN(Cc2ccc(C#N)cc2O)CC1` [compound 180], the IC50 was 25 to 100 nM. `CC[C@H]1CN(c2nc(N)c(C(=O)NC)nc2Cl)CCN1C1(C)CCN(Cc2ccc(Cl)cc2)CC1` [compound 80] was tested, and the IC50 was over 100 nM. Molecule `CC[C@H]1CN(c2nc(N)c(C(=O)NNC(C)=O)nc2Cl)CCN1C1CCN(Cc2ccc(Cl)cc2)CC1` [compound 272] has an IC50 of 25 to 100 nM. Molecule `CC[C@H]1CN(c2nc(N)c(C(=O)NCCO)nc2Cl)CCN1C1CCN(Cc2ccc(Cl)cc2OCCN2CCCC2=O)CC1` [compound 195] has an IC50 of over 100 nM. `CC[C@H]1CN(c2nc(N)c(C(=O)NN)nc2Cl)CCN1C1CCN(C(=O)c2ccc(Cl)cc2)CC1` [compound 358] gave an IC50 of over 100 nM. In the case of `CCOC(=O)COc1cc(Cl)ccc1C(=O)N1CCC(N2CCN(c3nc(N)c(C(=O)NCCO)nc3Cl)C[C@@H]2CC)CC1` [compound 324], the IC50 is reported as over 100 nM. `CC[C@H]1CN(c2nc(N)c(C(=O)NC(=N)NC)nc2Cl)CCN1C1CCN(C(=O)c2ccc(OC(F)(F)F)cc2)CC1` [compound 402] showed an IC50 of under 25 nM. `CC[C@H]1CN(c2nc(N)c(C(=O)NC(=N)NC)nc2Cl)CCN1C1CCN(C(=O)c2ccc(Cl)cc2)CC1` [compound 393] was tested, and the IC50 was under 25 nM. Work on `CC[C@H]1CN(c2ncc(C(=O)NC)nc2C)CCN1C1CCN(C(=O)c2ccc(Cl)cc2F)CC1` [compound 455] yielded an IC50 of under 25 nM. `CC[C@H]1CN(c2ncc(C(=O)NC3(C)CC3)nc2C)[C@H](C)CN1C1CCN(C(=O)c2ccc(Cl)cc2)CC1` [compound 479] showed an IC50 of under 25 nM. Molecule `CC[C@H]1CN(c2nc(N)c(C(=O)NC)nc2Cl)CCN1C1CCN([C@@H](C(=O)NC)c2ccc(Cl)cc2)CC1` [compound 71] has an IC50 of 25 to 100 nM. For `CC[C@H]1CN(c2nc(N)c(C(=O)NCCO)nc2Cl)CCN1C1CCN(C(=O)c2cc(F)c(F)cc2NC(=O)c2cc(F)c(F)cc2N)CC1` [compound 363], the IC50 was over 100 nM. For `CC[C@H]1CN(c2nc(N)c(C(N)=O)nc2Cl)CCN1C1CCN(Cc2ccc(Cl)cc2CCO)CC1` [compound 4], the IC50 was under 25 nM. `CC[C@H]1CN(c2nc(N)c(C(=O)NCCO)nc2Cl)CCN1C1CCN(Cc2c(O)cc(Cl)cc2Cl)CC1` [compound 186] was tested, and the IC50 was 25 to 100 nM. With `C[C@@H]1CN(C2CCN(Cc3ccc(Cl)cc3F)CC2)[C@@H](C)CN1c1cnc(C(=O)NC2CC2)cn1` [compound 94] the IC50 was 25 to 100 nM. Work on `CC[C@H]1CN(c2nc(N)c(C(=O)N[C@@H]3CCN(C(=O)OC(C)(C)C)C3)nc2Cl)CCN1C1CCN(Cc2ccc(Cl)cc2)CC1` [compound 274] yielded an IC50 of over 100 nM. In the case of `CC[C@H]1CN(c2ncc(C(=O)NC3CC3)nc2C)[C@H](C)CN1C1CCN(C(=O)c2ccc(Cl)cc2)CC1` [compound 468], the IC50 is reported as under 25 nM. `CC[C@H]1CN(c2ncc(C(=O)NC3CC3)nc2C(F)(F)F)CCN1C1CCN(C(=O)c2ccc(Cl)cc2)CC1` [compound 489] gave an IC50 of under 25 nM. In the case of `CC[C@H]1CN(c2nc(N)c(C(=O)OC)nc2Cl)CCN1C1CCN(Cc2ccc(Cl)cc2CCNS(C)(=O)=O)CC1` [compound 303], the IC50 is reported as over 100 nM. `CC[C@H]1CN(c2nc(N)c(C(N)=O)nc2Cl)CCN1C1CCN(Cc2ccc(Cl)cc2[C@H](O)C(N)=O)CC1` [compound 11] gave an IC50 of under 25 nM. `CC[C@H]1CN(c2nc(N)c(C(N)=O)nc2Cl)CCN1C1CCN([C@@H](CO)c2ccc(Cl)cc2)CC1` [compound 5] gave an IC50 of under 25 nM. Work on `CC[C@H]1CN(c2nc(N)c(C(=O)NCCO)nc2Cl)CCN1C1CCN(C(=O)c2ccc(F)c(F)c2NCc2ccccc2)CC1` [compound 360] yielded an IC50 of over 100 nM. For `CC[C@H]1CN(c2nc(N)c(C(=O)NCCO)nc2Cl)CCN1C1CCN(Cc2ccc(Cl)cc2C(=O)NCCO)CC1` [compound 176], the IC50 was under 25 nM. `CC[C@H]1CN(c2nc(N)c(C(N)=O)nc2Cl)CCN1C1CCN(Cc2ccc(Cl)cc2C2OC(=O)N(C)C2=O)CC1` (some centres unmarked) [compound 406] showed an IC50 of over 100 nM. In the case of `CC[C@H]1CN(c2nc(N)c(C(=O)NCCNS(N)(=O)=O)nc2Cl)CCN1C1CCN(C(C(=O)OC)c2ccc(Cl)cc2)CC1` (some centres unmarked) [compound 263], the IC50 is reported as over 100 nM. For `CC[C@H]1CN(c2nc(N)c(C(=O)NCCO)nc2Cl)CCN1C1CCN(C(=O)c2ccc(Cl)cc2CCNC(C)=O)CC1` [compound 352], the IC50 was over 100 nM. `CCc1ccc(C(=O)N2CCC(N3CCN(c4ncc(C(=O)NC5CC5)nc4C(F)(F)F)C[C@@H]3CC)CC2)cc1` [compound 487] showed an IC50 of under 25 nM. Work on `CC[C@H]1CN(c2nc(N)c(C(=O)NCCO)nc2Cl)CCN1C1CCN(C(=O)c2ccc(Cl)cc2N)CC1` [compound 339] yielded an IC50 of under 25 nM. `CC[C@H]1CN(c2nc(N)c(C(N)=O)nc2Cl)CCN1C1CCN(Cc2ccc(Cl)cc2CCn2ccnc2)CC1` [compound 52] showed an IC50 of over 100 nM. `CC[C@H]1CN(c2nc(N)c(C(N)=O)nc2Cl)CCN1C1CCN(Cc2ccc(Cl)cc2S(N)(=O)=O)CC1` [compound 401] gave an IC50 of under 25 nM. Work on `CC[C@H]1CN(c2nc(N)c(C(=O)NCCO)nc2Cl)CCN1C1CCN(C(=O)c2ccc(C)cc2O)CC1` [compound 321] yielded an IC50 of 25 to 100 nM. `CC[C@H]1CN(c2nc(N)c(C(=O)NCCNS(C)(=O)=O)nc2Cl)CCN1C1CCN(Cc2ccc(Cl)cc2C(=N)N)CC1` [compound 243] showed an IC50 of under 25 nM. For `CC[C@H]1CN(c2ncc(C(=O)NC3CC3)nc2C)CCN1C1CCN(Cc2ccc(C)c(F)c2)CC1` [compound 448], the IC50 was under 25 nM. In the case of `CC[C@H]1CN(c2nc(N)c(C(=O)NCCN/C(N)=N/C#N)nc2Cl)CCN1C1CCN(C(=O)c2ccc(Cl)cc2)CC1` [compound 355], the IC50 is reported as over 100 nM. Work on `CC[C@H]1CN(c2nc(N)c(C(=O)NCCO)nc2Cl)CCN1C1CCN(C(=O)c2ccc(Cl)cc2OCCNS(=O)(=O)C(F)(F)F)CC1` [compound 316] yielded an IC50 of under 25 nM. `CC[C@H]1CN(c2ncc(C(=O)NC)nc2C)CCN1C1CCN(C(=O)c2ccc(Cl)c(F)c2)CC1` [compound 454] was tested, and the IC50 was under 25 nM. Work on `CC[C@H]1CN(c2nc(N)c(C(=O)NC(CO)CO)nc2Cl)CCN1C1CCN(C(=O)c2ccc(Cl)cc2)CC1` [compound 320] yielded an IC50 of 25 to 100 nM. With `CC[C@H]1CN(c2nc(N)c(C(N)=O)nc2Cl)CCN1C1CCN([C@@H](C(N)=O)c2ccc(Cl)cc2)CC1` [compound 57] the IC50 was over 100 nM. `CC[C@H]1CN(c2nc(N)c(C(=O)NCCO)nc2Cl)CCN1C1CCN(Cc2ccc(Cl)cc2C(=N)NC)CC1` [compound 151] showed an IC50 of under 25 nM. In the case of `CC[C@H]1CN(c2nc(N)c(C(=O)NCCO)nc2Cl)CCN1C1CCN(C(c2ccc(Cl)cc2)c2nccs2)CC1` (some centres unmarked) [compound 207], the IC50 is reported as over 100 nM. With `CC[C@H]1CN(c2ncc(C(=O)NCCO)nc2C)[C@H](C)CN1C1CCN(Cc2ccc(OC(F)(F)F)cc2)CC1` [compound 488] the IC50 was under 25 nM. With `CC[C@H]1CN(c2nc(N)c(C(N)=O)nc2Cl)CCN1C1CCN(Cc2ccc(Cl)cc2C(N)C(N)=O)CC1` (some centres unmarked) [compound 381] the IC50 was 25 to 100 nM.

Same assay, conditions: human; read-out: human IC50
In the case of `CC[C@H]1CN(c2ncc(C(=O)NC3CC3)nc2C)CCN1C1CCN([C@@H](CO)c2ccc(Cl)cc2)CC1` [Formula 12], the IC50 is reported as under 1 nM.
